Assays:
Type in all cases: in vivo, rat
Settings in all cases: rats
MIP-2/CINC-3 = assay: LPS-induced acute lung injury, lung homogenate MIP-2/CINC-3 ELISA
Experimental: (§1) The study was designed to evaluate the direct impact of an Aloe-based composition (UP360) made in the Example 9 in alleviating LPS-induced acute lung injury administered orally at 500 mg/kg and 250 mg/kg. […] In this study, we treated rats with the test materials orally for 7 days before model induction with LPS. On the 8th day, an hour after oral treatment, LPS was instilled intratracheally (i.t.) at 10 mg/kg dissolved in 0.1 mL/100 g PBS to each rat. The normal control rats received the same volume i.t. PBS only.
(§2) We sacrificed surviving animals 24 hours after intratracheal LPS administration to the rats. At necropsy, collected bronchoalveolar lavage (BAL) by intratracheal injection of 1.5 mL PBS into the right lobe followed by gentle aspiration at least 3 times. […]
50 μL of each rat lung homogenate sample from Example 23 (10 per group for Vehicle, Sodium Butyrate (SB), UP360 Low dose, UP360 High dose, 7 per group for Control) and 50 μL of assay diluent buffer were added to the wells of a 96-well microplate coated with monoclonal CINC-3 antibody and allowed to bind for 2 hours. […] The absorbance of each well was read at 450 nm (with a 580 nm correction) and compared to a standard curve of CINC-3 in order to approximate the amount of CINC-3 in each rat lung homogenate sample.

C Reactive Protein (CRP) = assay: LPS-induced acute lung injury, BAL C Reactive Protein ELISA
Experimental: as §1
as §2, with “times. Pooled recovered fluid, centrifuged at 1500 rpm for 10 min at 4 ° C., and was used to measure cytokines (e.g. IL-6) and pulmonary protein levels.” for “times.”
The presence of C Reactive Protein (CRP) in rat BAL diluted 1:1,000 was measured using the C Reactive Protein (PTX1) Rat ELISA kit from Abcam (product #: ab108827) as follows: 1:1,000 diluted BAL was added to a microplate coated with CRP antibody. […] After developing for 10 minutes at room temperature, a stop solution was added, and the absorbance was read at 450 nm. The concentration of CRP was calculated based on the absorbance readings of a CRP standard curve.

IL-1β = assay: LPS-induced acute lung injury, serum IL-1β ELISA
Experimental: as §1
as §2, with “times. Pooled recovered fluid, centrifuged at 1500 rpm for 10 min at 4 ° C., and was used to measure cytokines (e.g. IL-6) and pulmonary protein levels.” for “times.”
The presence of IL-1β in undiluted rat serum from Example 23 was measured using the Rat IL-1β Quantikine ELISA kit from R&D Systems (product#: RLBOO) as follows: undiluted serum was added to a microplate coated with IL-1β antibody. […] After developing for 30 minutes at room temperature, a stop solution was added, and the absorbance was read at 450 nm. The concentration of IL-1β was calculated based on the absorbance readings of an IL-1β standard curve.

[1] = LPS 10 mg/kg i.t., 24 hours post, oral, 500 mg/kg

## CCCC(=O)[O-].[Na+] [Sodium Butyrate]
MIP-2/CINC-3; [1]
  lung homogenate MIP-2/CINC-3 level, Mean ± SD: 464.00 ± 220.32 pg/mL
MIP-2/CINC-3; LPS i.t., 500 mg/kg oral
  reduction in CINC-3 level vs vehicle: 17.7%
C Reactive Protein (CRP); [1]
  BAL CRP level, Mean ± SD: 20093.5 ± 8826.1 pg/mL
C Reactive Protein (CRP); LPS i.t., 500 mg/kg oral
  reduction of BAL CRP vs vehicle: minimal changes
IL-1β; [1]
  serum IL-1β level, Mean ± SD: 22.58 ± 9.46 pg/mL
IL-1β; LPS i.t., 500 mg/kg oral
  reduction in serum IL-1β vs vehicle: 65.3%
